Consider one compound from patent publication US20140093550A1 (priority 2012, published 2014).

Each structure is given as a SMILES string.

The subject of test [1] is Legionella pneumophila biofilm. The class given is cell-based, Legionella pneumophila strain Philadelphia 1 (ATCC 33152). The settings on record: 7 days; nanoparticles 1 microgram/milliliter, chlorine dioxide 0.1 ppm.
The test system of test [2] is Legionella pneumophila biofilm. The class given is cell-based, Legionella pneumophila strain Philadelphia 1 (ATCC 33152). Conditions: 5 days post-treatment after 7 days of treatment (Example 7 biofilms).

For the compound `[O][Cl+][O-]` [chlorine dioxide biocide, chlorine dioxide], in test [1], the “biomass of biofilm after treatment (Example 7, FIG. 14)” value is given as “about 0.5 micrometers^3/micrometers^2”. Moreover, the “fold increase in biomass on day 12” value in test [2] is reported as approximately 1.25 fold.
